Tests used:
[1] = Brain exposure pharmacokinetic study in Sprague Dawley rats; format: in vivo, rat; conditions: male Sprague Dawley rats, oral gavage 10 mg/kg, plasma, CSF
Experimental: The brain exposure of exemplary compounds, e.g., 1, 2, and 4 were evaluated in male Sprague Dawley rats after oral gavage administration at 10 mg/kg. The formulation was 5% DMSO+10% PEG400 in saline. Rats were fasted overnight with food returned 4 hours post-dose. CSF was collected by direct needle puncture into the cisterna magna.
(§1) For both rat and mouse studies, brain tissue was washed with 3 volumes of saline prior to homogenization. Brain tissue was homogenized with 3 volumes (v/w) of phosphate buffered saline. Plasma, brain homogenate, and CSF samples (rat only) were analyzed by LC-MS/MS and the concentration of test compound at each time point was determined by linear regression.
(§2) Pharmacokinetic parameters were calculated from the plasma, brain, and CSF concentrations by non-compartmental modeling using WinNonlin 8.2.

TYK2-JH2 = biological target: T1, TYK2-JH2 (Homo sapiens, UniProt P29597); assay: TYK2-JH2 HTRF binding assay (ligand efficiency); conditions: calculated (Equation 1) from IC50 of the TYK-JH2 binding assay
T1 construct: TYK JH2 enzyme mix (ChemPartner: CP20210818A-BV); purchased ChemPartner CP20210818A-BV
T1 sequence (P29597 589-875 limits assumed): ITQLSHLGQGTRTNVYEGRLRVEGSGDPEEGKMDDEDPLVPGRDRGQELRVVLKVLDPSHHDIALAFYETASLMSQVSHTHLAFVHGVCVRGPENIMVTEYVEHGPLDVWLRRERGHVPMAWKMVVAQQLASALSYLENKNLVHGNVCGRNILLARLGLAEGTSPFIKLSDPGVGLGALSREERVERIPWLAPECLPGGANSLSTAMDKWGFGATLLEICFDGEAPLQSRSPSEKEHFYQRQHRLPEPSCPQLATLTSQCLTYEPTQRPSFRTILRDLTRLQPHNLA
Experimental: The following example describes the TYK2-JH2 HTRF binding assay used to determine the ligand efficiency of the TYK2 inhibitors.
To calculate ligand efficiency, Equation 1 is applied: […]
in which IC50 comes from the binding assay used to determine compound potency.
TYK JH2 enzyme mix (ChemPartner: CP20210818A-BV), tracer (ChemPartner: CP-0029472-051) and mAb Anti-6HIS Tb cryptate Gold (Cisbio: Cat No. 61HI2TLA) mix were prepared in assay buffer (10 mM MgCl2, 20 mM HEPES pH 7.5, 0.01% Triton X-100, 1 mM DTT). Compounds diluted in DMSO (Final Concentrations 0.1 to 0.000005 [μM]) and enzyme mix (0.5 nM Final Concentration) were added to 384 well plates, briefly centrifuged and incubated at room temperature for 10 minutes. After incubation, tracer mix (Tracer-35 nM final concentration); (MAb Anti-6HIS Tb cryptate Gold-0.5X final)) was added, briefly centrifuged then incubate at room temperature 60 minutes. After incubation, plates were read by Envision TR-FRET (Ex340/Em495/520) protocol (PerkinElmer-Envision 2104 multilabel plate reader).

[2] = Mouse pharmacokinetic study, oral administration; format: in vivo; conditions: male, mouse plasma, PO at 5 mg/kg; for half-life: read-out: Half-life t1/2; for Cmax: read-out: Maximum plasma concentration Cmax; for AUC(0-inf): read-out: Total systemic exposure AUCinf
Experimental: The following example describes the methods used to evaluate the pharmacokinetics of TYK2 inhibitors in vivo following dosing of a compound of the invention.
The pharmacokinetics of test compounds were evaluated in either male CD-1 mice or male C57BL/6 mice when administered by oral gavage and IV bolus injection. The animals were allowed free access to food and water before administration. The plasma samples were analyzed by LC-MS/MS and the concentration of test compound at each time point was determined by linear regression. Pharmacokinetic parameters were calculated from the plasma concentrations by non-compartmental modeling using WinNonlin 8.2.
Oral composition. To prepare a pharmaceutical composition for oral delivery, the test articles described herein were dissolved in DMSO and then mixed with necessary volume of PEG400 followed by 0.9% sterile saline or 5% dextrose in water or 5% Kolliphor HS 15 in saline to provide the final concentrations of 0.5 mg/mL or 1 mg/mL (Table 8). The resultant mixtures were suitable for oral administration.
The PK parameters measured in mouse plasma after treatment with TYK2 inhibitor compounds via PO (oral administration) at 5 mg/kg are summarized below in Tables 9-11.

[3] = Brain exposure pharmacokinetic study in C57BL/6 mice; format: in vivo, mouse; conditions: male C57BL/6 mice, oral gavage 5 mg/kg, plasma
Experimental: The brain exposure of 18 was evaluated in male C57BL/6 mice after oral gavage administration at 5 mg/kg. The formulation was 10% DMSO+40% PEG400 in saline. Mice were provided free access to food and water without fasting. Terminal sample collection of plasma and brain tissue were collected at […], 0.25, 0.5, 1, 2, and 4 hours post-dose with n=3 at each timepoint.
as §1, §2

With C[C@@H](c1ccc(Nc2cc(Nc3ncc(F)cc3S(C)(=O)=O)ncn2)nc1)N1CC2(COC2)C1 [Compound 2, (S)—N^4-(5-(1-(2-oxa-6-azaspiro[3.3]heptan-6-yl)ethyl)pyridin-2-yl)-N^6-(5-fluoro-3-(methylsulfonyl)pyridin-2-yl)pyrimidine-4,6-diamine] the “Brain Kpu, u” value [1] was “† (†<0.1 u)”, the “Ligand Efficiency” value (TYK2-JH2) was “††† (†††: >0.39)” and the half-life [2] was 1 to 1.5 h. It also gave a Cmax [2] of over 1.5 µg/mL and an AUC(0-inf) [2] of over 2 µg·h/mL.

For C[C@@H](c1ccc(Nc2cc(Nc3ncccc3S(C)(=O)=O)ncn2)nc1)N1CC2(COC2)C1 [Compound 1, (S)—N^4-(5-(1-(2-oxa-6-azaspiro[3.3]heptan-6-yl)ethyl)pyridin-2-yl)-N^6-(3-(methylsulfonyl)pyridin-2-yl)pyrimidine-4,6-diamine], the “Brain Kpu, u” value [1] was “†† (††0.1-0.2 u)”, the “Ligand Efficiency” value (TYK2-JH2) was “††† (†††: >0.39)” and the half-life [2] was 1 to 1.5 h. For the same molecule, the Cmax [2] was under 0.8 µg/mL and the AUC(0-inf) [2] was 1 to 2 µg·h/mL.

For C[C@@H](c1ccc(Nc2cc(Nc3ncccc3S(C)(=O)=O)ncn2)nc1)N(C)C [Compound 4, (S)—N^4-(5-(1-(dimethylamino)ethyl)pyridin-2-yl)-N^6-(3-(methylsulfonyl)pyridin-2-yl)pyrimidine-4,6-diamine], the “Brain Kpu, u” value [1] was “††† (††† >0.2 u)”, the “Ligand Efficiency” value (TYK2-JH2) was “††† (†††: >0.39)” and the half-life [2] was 1 to 1.5 h. For the same molecule, the Cmax [2] was under 0.8 µg/mL and the AUC(0-inf) [2] was under 1 µg·h/mL.

With Cc1cccc(Nc2cc(Nc3ncccc3S(C)(=O)=O)ncn2)n1 [Compound 18, N^4-(6-methylpyridin-2-yl)-N^6-(3-(methylsulfonyl)pyridin-2-yl)pyrimidine-4,6-diamine] the “Brain Kpu, u” value [3] was “††† (††† >0.2 u)” and the “Ligand Efficiency” value (TYK2-JH2) was “††† (†††: >0.39)”.
